The source made the active and inactive calls. The calls are words filed in the database; no cut-off is given here.
Assays:
[1] = target: Protein disulfide-isomerase (Homo sapiens) (UniProt P07237); test: Inhibition of PDI in human platelet rich plasma assessed as reduction in SFLLRN peptide-induced platelet aggregation preincubated for 30 mins followed by SFLLRN addition relative to control
Mus musculus = species on record: Mus musculus; test: Anti-platelet activity in mouse assessed as inhibition of laser injury-induced thrombus formation by measuring reduction in platelet accumulation in cremaster arterioles by microscopic method; format: functional, organism-based

Chain of Protein disulfide-isomerase (Homo sapiens) (P07237 18-508 limits assumed): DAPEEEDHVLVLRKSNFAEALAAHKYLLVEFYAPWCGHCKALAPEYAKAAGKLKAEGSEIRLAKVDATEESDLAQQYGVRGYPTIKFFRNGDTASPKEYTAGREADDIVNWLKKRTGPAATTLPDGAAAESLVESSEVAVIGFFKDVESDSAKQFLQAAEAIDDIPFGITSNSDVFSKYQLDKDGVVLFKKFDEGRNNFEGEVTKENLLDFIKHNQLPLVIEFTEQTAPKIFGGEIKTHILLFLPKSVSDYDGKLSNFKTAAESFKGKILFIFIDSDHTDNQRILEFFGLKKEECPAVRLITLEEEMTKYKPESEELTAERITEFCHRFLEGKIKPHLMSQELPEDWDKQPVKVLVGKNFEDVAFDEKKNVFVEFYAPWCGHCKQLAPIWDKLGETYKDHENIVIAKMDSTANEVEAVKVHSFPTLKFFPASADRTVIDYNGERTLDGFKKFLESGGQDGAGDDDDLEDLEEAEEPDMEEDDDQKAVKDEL

inhibition [1] | Structure (SMILES) | inhibition (Mus musculus)
100% | CC(C)(C)OC(=O)C1(CCOc2ccccc2)CCN(Cc2ccc(O)c(Cl)c2)CC1 | –
100% | CCOC(=O)C1(CCOc2ccccc2)CCN(C(=O)c2ccc(O)c(Cl)c2)CC1 | –
25 to 50% | CCOC(=O)C1(CCOc2ccccc2)CCN(Cc2ccc(O)c(Cl)c2)CC1 | Active

From ChEMBL document CHEMBL4257225, “Compounds and compounds for use in methods for treating diseases or conditions mediated by protein disulfide isomerase” (2016)
